Reference: patent US20140137274A1, “INDUCED MALIGNANT STEM CELLS” (LSIP, LLC, priority 2011, published 2014)

Tested on: cancer-related miRNAs
Assay: miRNA expression microarray (SurePrint G3 Human miRNA Microarray Rel.16.0)
Settings: logarithmic (log2) value of quotient vs control
Method: Total RNA was prepared from each of six induced malignant stem cells, one induced non-malignant stem cell, and one induced pluripotent stem cell as mentioned above, and the prepared total RNAs were used in Agilent SurePrint G3 Human miRNA Microarray Rel.16.0 to detect abnormal expression (increased or reduced/lost expression) of non-coding RNAs such as endogenous cancer-related microRNAs in the induced malignant stem cells.
Complete Labeling Reagent and Hyb Kit in accordance with the Agilent protocol. To be specific, each sample total RNA (100 ng) was dephosphorylated with Calf Intestine Alkaline Phosphatase (CIP), and the RNA molecule on its 3′ terminal side was labeled with a cyanine 3-cytidine bisphosphate (pCp-Cy3) molecule using T4 RNA Ligase.
The RNA samples labeled in (14-2-3) were hybridized with SurePrint G3 Human miRNA Microarray Rel.16.0 using Agilent miRNA Complete Labeling Reagent and Hyb Kit. To be specific, each of the labeled RNAs was added to a hybridization buffer and allowed to hybridize on SurePrint G3 Human miRNA Microarray Rel.16.0 for 20 hours. After washing, the DNA microarray image was scanned by Agilent Microarray Scanner, and fluorescence signals from the spots were digitized by Feature Extraction Software (v.10.7.3.1).
The miRNAs were annotated using miRBase Release 18, and hybridization was performed onto a microarray chip with the probes designed for the miRNAs shown in the following table (refer to Table 31 below).
In this analysis, the normalized value of the digital data for the hybridization of a subject cell (induced malignant stem cell) sample was divided by the normalized value from the digital data for the hybridization of a control cell sample and the quotient was used as a measure of variation in expression. Probes for which the quotients deviated from 1 (i.e., log21=0) were considered to indicate a variation in expression; those showing quotients greater than 2 (log22=1) or smaller than 0.5 (log20.5=−1) were selected. For each of the comparisons shown below, the genes shown in the tyrosine kinase list and those shown in the cancer drug targets list were analyzed to make respective lists of the genes showing quotients greater than 2 (log22=1) or smaller than 0.5 (log20.5=−1), as compared with the quotient for the control (taken as 1). The analysis was performed using GeneSpring 12.1.
The Normalized column represents a variation in expression in logarithmic values.

Substance | Normalized (variation in microRNA expression, subject cell / control cell) ([cc4_c]vs [Nfb2_17]) | Normalized (variation in microRNA expression, subject cell / control cell) ([gc1_6]vs [Ngc1_7]) | Normalized (variation in microRNA expression, subject cell / control cell) ([gc2_5]vs [Nfb2_17]) | Normalized (variation in microRNA expression, subject cell / control cell) ([gc2_10]vs +Nfb2_17]) | Normalized (variation in microRNA expression, subject cell / control cell) ([gc2_1]vs [Nfb2_17]) | Normalized (variation in microRNA expression, subject cell / control cell) ([Ngc1_7]vs [Nib2_17]) | Normalized (variation in microRNA expression, subject cell / control cell) ([gcl_6]vs [Nfb2_17])
hsa-miR-125a-5p (TCACAGGTTAAAGGGTCTC; chemistry not given here) | 1.809 | −1.373 | −1.149 |  |  |  | 
hsa-let-7f-5p (AACTATACAATCTACTACCTC; chemistry not given here) | 5.523 | −1.421 |  |  |  |  | 
hsa-miR-222-3p (ACCCAGTAGCCAG; chemistry not given here) | 1.861 |  |  |  |  |  | 
hsa_miR-301a-3p (GCTTTGACAATACTATTGCAC; chemistry not given here) | −1.212 |  |  |  |  |  | 
hsa-miR-96-5p (AGCAAAAATGTGCTAGTGCCAA; chemistry not given here) | 1.093 |  |  |  |  |  | 
hsa-miR-I7-5p (CTACCTGCACTGTAAGC; chemistry not given here) |  |  |  | −3.619 |  |  | 
hsa-miR-18a-5p (CTATCTGCACTAGATGCA; chemistry not given here) | −1.44 |  |  |  |  |  | 
hsa-miR-27b-3p (GCAGAACTTAGCCACTGT; chemistry not given here) | 2.569 |  |  | −2.297 | −2.575 |  | 
hsa-let-7d-5p (AACTATGCAACCTACTACC; chemistry not given here) |  | −1.545 |  |  |  |  | 
hSA-lEt-7f-5p (AACTATACAATCTACTACCTC; chemistry not given here) |  |  |  |  |  | 2.259 | 
hsa-miR-205-5p (CAGACTCCGGTGGAAT; chemistry not given here) |  |  | −2.341 | −2.908 | −1.577 | −1.315 | 
hsa-miR-130a-3p (ATGCCCTTTTAACATTGCA; chemistry not given here) | −4.732 |  | −5.014 | −5.029 | −5.267 |  | 
hsa-miR-200c-3p (TCCATCATTACCCGG; chemistry not given here) | 4.536 |  |  | −1.715 | −1.393 | 1.59 | 2.005
hsa-let-7a-5p (AACTATACAACCTACTACCT; chemistry not given here) | 5.026 | −1.09 | −1.334 |  | −1.233 | 1.941 | 
hsa-miR-25-3p (TCAGACCGAGACAAGTGC; chemistry not given here) |  |  | −1.478 | −1.515 | −1.899 |  | 
hsa-miR-7-5p (ACAACAAAATCACTAGTCTTCC; chemistry not given here) | 2.213 |  |  |  |  |  | 
hsa-miR-373-3p (ACACCCCAAAATCGAAGC; chemistry not given here) |  | 1.725 | −2.93 | −3.202 |  | −2.818 | −1.094

Substance | Normalized (variation in microRNA expression, subject cell / control cell) ([cc4_c]vs [Nfb2_17]) | Normalized (variation in microRNA expression, subject cell / control cell) ([gc1_6]vs [Ngc1_7]) | Normalized (variation in microRNA expression, subject cell / control cell) ([gc2_5]vs [Nfb2_17]) | Normalized (variation in microRNA expression, subject cell / control cell) ([gc2_10]vs +Nfb2_17]) | Normalized (variation in microRNA expression, subject cell / control cell) ([gc2_1]vs [Nfb2_17]) | Normalized (variation in microRNA expression, subject cell / control cell) ([Ngc1_7]vs [Nib2_17]) | Normalized (variation in microRNA expression, subject cell / control cell) ([gcl_6]vs [Nfb2_17])
hsa-miR-21-5p (TCAACATCAGTCTGATAAGC; chemistry not given here) | 2.904 |  | −6.38 | −5.844 | −6.311 | 1.136 | 
hsa-miR-15a-5p (CACAAACCATTATGTGCTGCT; chemistry not given here) | 1.163 |  |  |  |  |  | 
hsa-miR-29a-3p (TAACCGATTTCAGATGGTGC; chemistry not given here) | 3.972 |  |  | −3.561 |  |  | 
hsa-miR-34a-5p (ACAACCAGCTAAGACACTGC; chemistry not given here) |  |  | −2.833 | −2.706 | −2.608 |  | 
hsa-let-7g-5p (AACTGTACAAACTACTACCTC; chemistry not given here) |  | −1.935 |  |  |  |  | 
hsa-miR-17-5p (CTACCTGCACTGTAAGC; chemistry not given here) |  |  | −3.466 |  | −3.19 |  | 
hsa-miR-16-5p (CGCCAATATTTACGTGCTG; chemistry not given here) |  |  | −4.816 | −4.956 | −5.228 |  | 
hsa-miR-20a-5p (CTACCTGCACTATAAGCAC; chemistry not given here) |  |  | −4.951 | −5.12 | −4.784 |  | 
hsa-let-7b-5p (AACCACACAACCTACTACC; chemistry not given here) |  | −1.937 |  |  |  |  | 
hsa-let-7c (AACCATACAACCTACTACC; chemistry not given here) |  | −1.801 |  |  |  | 2.65 | 
hsa-miR-27a-3p (GCGGAACTTAGCCACTG; chemistry not given here) | 3.755 | −1.047 |  |  |  | 1.084 | 
hsa-miR-210 (TCAGCCGCTGTCACAC; chemistry not given here) | 3.796 |  | −1.628 |  |  | 1.643 | 2.036
hsa-miR-23b-3p (GGTAATCCCTGGCAATG; chemistry not given here) | 3.268 | −1.014 |  |  |  | 1.154 | 
hsa-miR-34c-5p (GCAATCAGCTAACTACACTG; chemistry not given here) | 1.308 |  |  |  |  |  | 
hsa-miR-134 (CCCCTCTGGTCAA; chemistry not given here) |  |  | 1.299 | 2.829 | 1.853 | 2.736 | 2.883
hsa-miR-124-3p (GGCATTCACCGCGTGC; chemistry not given here) |  |  |  |  |  | 1.242 | 1.88
hsa-miR-20b-5p (CTACCTGCACTATGAGCAC; chemistry not given here) | −3.293 |  | −3.269 | −3.502 | −3.152 |  | 
